# Biological target: PRMT5/MEP50 (Homo sapiens (Human), UniProt O14744)
# Experiment: PRMT5 Biochemical Assay (PRMT5/MEP50 enzyme assay on peptide substrate, 3H-SAM Flashplate)
# Conditions: PRMT5 biochemical assay; read-out: Biochemical IC50
# Text: S-adenosylmethionine (SAM), S-adenosylhomocysteine (SAH), bicine, KCl, Tween20, dimethylsulfoxide (DMSO), bovine skin gelatin (BSG), and Tris(2-carboxyethyl)phosphine hydrochloride solution (TCEP) were purchased from Sigma-Aldrich at the highest level of purity possible. ^3H-SAM was purchase from American Radiolabeled Chemicals with a specific activity of 80 Ci/mmol. 384-well streptavidin Flashplates were purchased from PerkinElmer.
# Peptide representative of human histone H4 residues 1-15 was synthesized with a C-terminal linker-affinity tag motif and a C-terminal amide cap by 21st Century Biochemicals. […] The sequence was Ac-[…][K-Biot]-amide (SEQ ID NO.:3).
# Full-length human MEP50 (NM_024102) clone was amplified from a human testis cDNA library incorporating a 5′ sequence encoding a 6-histidine tag (MHHHHHH)(SEQ ID NO.:5) fused directly to Arg 2 of MEP50. The amplified genes were sublconed into pENTR/D/TEV (Life Technologies) and subsequently transferred by Gateway™ attL×attR recombination to pDEST8 baculvirus expression vector (Life Technologies).
# Recombinant baculovirus and Baculovirus-Infected Insect Cells (BIIC) were generated according to Bac-to-Bac kit instructions (Life Technologies) and Wasilko, 2006, respectively. Protein over-expression was accomplished by infecting exponentially growing Spodoptera frugiperda (SF9) cell culture at 1.2×10^6 cell/ml with a 5000 fold dilution of BIIC stock. Infections were carried out at 27° C. for 72 hours, harvested by centrifugation, and stored at −80° C. for purification.
# Flag-PRMT5/6His-MeP50 was eluted with 300 mM Imidazole in the same buffer. […] Reference: Wasilko, D. J. and S. E. Lee: “TIPS: titerless infected-cells preservation and scale-up” Bioprocess J., 5 (2006), pp. 29-32.
# General Procedure for PRMT5/MEP50 Enzyme Assays on Peptide Substrates.
# The assays were all performed in a buffer consisting of 20 mM Bicine (pH=7.6), 1 mM TCEP, 0.005% BSG, and 0.002% Tween20, prepared on the day of use. Compounds in 100% DMSO (1 ul) were spotted into a polypropylene 384-well V-bottom plates (Greiner) using a Platemate Plus outfitted with a 384-channel head (Thermo Scientific). DMSO (1 ul) was added to Columns 11, 12, 23, 24, rows A-H for the maximum signal control and 1 ul of SAH, a known product and inhibitor of PRMT5/MEP50, was added to columns 11, 12, 23, 24, rows I-P for the minimum signal control. A cocktail (40 ul) containing the PRMT5/MEP50 enzyme and the peptide was added by Multidrop Combi (Thermo-Fisher). The compounds were allowed to incubate with PRMT5/MEP50 for 30 min at 25 degrees Celsius, then a cocktail (10 ul) containing ^3H-SAM was added to initiate the reaction (final volume=51 ul).
# PRMT5/MEP50, sequence (O14744 other isoform, or with tags, fused parts or gaps): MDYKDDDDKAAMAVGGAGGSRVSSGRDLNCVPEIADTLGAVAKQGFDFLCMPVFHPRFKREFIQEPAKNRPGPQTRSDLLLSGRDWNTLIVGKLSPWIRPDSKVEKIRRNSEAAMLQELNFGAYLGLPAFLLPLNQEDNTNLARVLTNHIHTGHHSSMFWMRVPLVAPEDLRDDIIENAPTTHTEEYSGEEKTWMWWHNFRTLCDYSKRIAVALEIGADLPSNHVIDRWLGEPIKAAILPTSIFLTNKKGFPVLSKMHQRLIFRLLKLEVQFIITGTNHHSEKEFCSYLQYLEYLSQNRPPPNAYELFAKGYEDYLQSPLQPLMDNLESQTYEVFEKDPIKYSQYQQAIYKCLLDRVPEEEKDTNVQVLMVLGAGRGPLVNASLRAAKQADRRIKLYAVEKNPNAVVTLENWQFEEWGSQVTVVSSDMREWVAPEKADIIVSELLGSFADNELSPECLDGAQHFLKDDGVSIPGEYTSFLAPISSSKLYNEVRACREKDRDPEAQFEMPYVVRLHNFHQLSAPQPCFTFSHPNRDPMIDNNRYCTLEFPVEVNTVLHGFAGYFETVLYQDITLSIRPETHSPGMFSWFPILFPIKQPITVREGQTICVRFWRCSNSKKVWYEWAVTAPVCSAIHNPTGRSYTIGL
# PRMT5/MEP50, sequence (Q9BQA1 other isoform, or with tags, fused parts or gaps partner): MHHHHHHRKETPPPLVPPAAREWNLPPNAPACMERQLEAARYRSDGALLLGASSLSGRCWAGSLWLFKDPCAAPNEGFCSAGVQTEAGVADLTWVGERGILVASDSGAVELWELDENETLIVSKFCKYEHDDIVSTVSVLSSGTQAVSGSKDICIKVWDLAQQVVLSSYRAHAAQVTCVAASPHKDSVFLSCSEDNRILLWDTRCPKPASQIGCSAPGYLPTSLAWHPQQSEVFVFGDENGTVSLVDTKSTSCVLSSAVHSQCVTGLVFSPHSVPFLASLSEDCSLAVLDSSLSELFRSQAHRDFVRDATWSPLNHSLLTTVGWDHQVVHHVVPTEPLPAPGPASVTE
row,Structure (SMILES),IC50 [nM]
1,O=C(COc1cccc2c1CCCN2Cc1ccccc1)NCC(O)CN1CCc2ccccc2C1 (stereo not drawn) [Compound 4],< 100
2,"CC(Oc1ccccc1)C(=O)NCC(O)CN1CCc2ccccc2C1 (stereo not drawn) [Compound 19, N-(3-(3,4-dihydroisoquinolin-2(1H)-yl)-2-hydroxypropyl)-2-phenoxypropanamide]",< 100
3,"COc1cccc(OCC(=O)NCC(O)CN2CCc3ccccc3C2)c1 (stereo not drawn) [Compound 20, N-(3-(3,4-dihydroisoquinolin-2(1H)-yl)-2-hydroxypropyl)-2-(3-methoxyphenoxy)acetamide]",< 100
4,COc1ccccc1OCC(=O)NCC(O)CN1CCc2ccccc2C1 (stereo not drawn) [Compound 22],< 100
5,"Cn1ncc2ccc(OCC(=O)NCC(O)CN3CCc4ccccc4C3)cc21 (stereo not drawn) [Compound 23, N-(3-(3,4-dihydroisoquinolin-2(1H)-yl)-2-hydroxypropyl)-2-((1-methyl-1H-indazol-6-yl)oxy)acetamide]",< 100
6,Cc1cccc(OCC(=O)NCC(O)CN2CCc3ccccc3C2)c1 (stereo not drawn) [Compound 26],< 100
7,CN(C)c1cccc(OCC(=O)NCC(O)CN2CCc3ccccc3C2)c1 (stereo not drawn) [Compound 27],< 100
8,"CS(=O)(=O)Nc1cccc(OCC(=O)NCC(O)CN2CCc3ccccc3C2)c1 (stereo not drawn) [Compound 28, N-(3-(3,4-dihydroisoquinolin-2(1H)-yl)-2-hydroxypropyl)-2-(3-(methylsulfonamido)phenoxy)acetamide]",< 100
9,"CS(=O)(=O)c1ccccc1OCC(=O)NCC(O)CN1CCc2ccccc2C1 (stereo not drawn) [Compound 37, N-(3-(3,4-dihydroisoquinolin-2(1H)-yl)-2-hydroxypropyl)-2-(2-(methylsulfonyl)phenoxy)acetamide]",< 100
10,CN(C)c1ccccc1OCC(=O)NCC(O)CN1CCc2ccccc2C1 (stereo not drawn) [Compound 38],< 100
11,"CC(Oc1cccc2cccnc12)C(=O)NCC(O)CN1CCc2ccccc2C1 (stereo not drawn) [Compound 39, N-(3-(3,4-dihydroisoquinolin-2(1H)-yl)-2-hydroxypropyl)-2-(quinolin-8-yloxy)propanamide]",< 100
12,O=C(COc1ccccc1C1CCCCC1)NCC(O)CN1CCc2ccccc2C1 (stereo not drawn) [Compound 40],< 100
13,"CC(C)(Oc1cccc2cccnc12)C(=O)NCC(O)CN1CCc2ccccc2C1 (stereo not drawn) [Compound 43, N-(3-(3,4-dihydroisoquinolin-2(1H)-yl)-2-hydroxypropyl)-2-methyl-2-(quinolin-8-yloxy)propanamide]",< 100
14,CS(=O)(=O)c1cccc(OCC(=O)NCC(O)CN2CCc3ccccc3C2)c1 (stereo not drawn) [Compound 47],< 100
15,"O=C(COc1cccc2ccc(N3CCOCC3)nc12)NCC(O)CN1CCc2ccccc2C1 (stereo not drawn) [Compound 48, N-(3-(3,4-dihydroisoquinolin-2(1H)-yl)-2-hydroxypropyl)-2-((2-morpholinoquinolin-8-yl)oxy)acetamide]",< 100
16,"O=C(COc1ccccc1N1CCOCC1)NCC(O)CN1CCc2ccccc2C1 (stereo not drawn) [Compound 49, N-(3-(3,4-dihydroisoquinolin-2(1H)-yl)-2-hydroxypropyl)-2-(2-morpholinophenoxy)acetamide]",< 100
17,"O=C(COc1ccccc1-c1cc[nH]n1)NCC(O)CN1CCc2ccccc2C1 (stereo not drawn) [Compound 50, 2-(2-(1H-pyrazol-3-yl)phenoxy)-N-(3-(3,4-dihydroisoquinolin-2(1H)-yl)-2-hydroxypropyl)acetamide]",< 100
18,CS(=O)(=O)Nc1ccccc1OCC(=O)NCC(O)CN1CCc2ccccc2C1 (stereo not drawn) [Compound 53],< 100
19,O=C(COc1cccc2c1CCCC2)NCC(O)CN1CCc2ccccc2C1 (stereo not drawn) [Compound 64],< 100
20,NS(=O)(=O)c1ccccc1OCC(=O)NCC(O)CN1CCc2ccccc2C1 (stereo not drawn) [Compound 65],< 100
21,"O=C(COc1cccc2ccccc12)NCC(O)CN1CCc2ccccc2C1 (stereo not drawn) [Compound 66, N-(3-(3,4-dihydroisoquinolin-2(1H)-yl)-2-hydroxypropyl)-2-(naphthalen-1-yloxy)acetamide]",< 100
22,O=C(COc1ccccc1-c1cc[nH]n1)NC[C@@H](O)CN1CCc2ccccc2C1 [Compound 67],< 100
23,O=C(COc1ccccc1-c1cc[nH]n1)NC[C@H](O)CN1CCc2ccccc2C1 [Compound 68],< 100

row,Structure (SMILES),IC50 [nM]
1,"C[C@@H](Oc1cccc2cccnc12)C(=O)NC[C@H](O)CN1CCc2ccccc2C1 [Compound 73, (R)—N—((S)-3-(3,4-dihydroisoquinolin-2(1H)-yl)-2-hydroxypropyl)-2-(quinolin-8-yloxy)propanamide]",< 100
2,C[C@@H](Oc1cccc2cccnc12)C(=O)NC[C@@H](O)CN1CCc2ccccc2C1 [Compound 74],< 100
3,O=C(COc1cccc(CN2CCOCC2)c1)NCC(O)CN1CCc2ccccc2C1 (stereo not drawn) [Compound 75],< 100
4,"C[C@H](Oc1cccc2cccnc12)C(=O)NC[C@H](O)CN1CCc2ccccc2C1 [Compound 76, (S)—N—((S)-3-(3,4-dihydroisoquinolin-2(1H)-yl)-2-hydroxypropyl)-2-(quinolin-8-yloxy)propanamide]",< 100
5,O=C(COc1ccccc1N1CCOCC1)NC[C@H](O)CN1CCc2ccccc2C1 [Compound 77],< 100
6,"CN1C(=O)COc2cccc(OCC(=O)NCC(O)CN3CCc4ccccc4C3)c21 (stereo not drawn) [Compound 80, N-(3-(3,4-Dihydroisoquinolin-2(1H)-yl)-2-hydroxypropyl)-2-(4-methyl-3-oxo-3,4-dihydro-2H-benzo[b][1,4]oxazin-5-yloxy)acetamide]",< 100
7,CN1CCOc2cccc(OCC(=O)NCC(O)CN3CCc4ccccc4C3)c21 (stereo not drawn) [Compound 81],< 100
8,Cn1ncc2c(OCC(=O)NCC(O)CN3CCc4ccccc4C3)cccc21 (stereo not drawn) [Compound 82],< 100
9,CN1CCN(c2ccccc2OCC(=O)NC[C@H](O)CN2CCc3ccccc3C2)CC1 [Compound 84],< 100
10,O=C(COc1ccccc1OCCN1CCOCC1)NC[C@H](O)CN1CCc2ccccc2C1 [Compound 86],< 100
11,CN(C)CCOc1ccccc1OCC(=O)NC[C@H](O)CN1CCc2ccccc2C1 [Compound 88],< 100
12,CC(=O)N1CCN(c2ccccc2OCC(=O)NCC(O)CN2CCc3ccccc3C2)CC1 (stereo not drawn) [Compound 90],< 100
13,O=C(COc1cccc2c1CCNC2)NCC(O)CN1CCc2ccccc2C1 (stereo not drawn) [Compound 91],< 100
14,O=C(COc1cccc2nccnc12)NCC(O)CN1CCc2ccccc2C1 (stereo not drawn) [Compound 92],< 100
15,O=C(COc1cccc(NC2CCOCC2)c1)NCC(O)CN1CCc2ccccc2C1 (stereo not drawn) [Compound 93],< 100
16,O=C(COc1c(CN2CCOCC2)ccc2cccnc12)NC[C@H](O)CN1CCc2ccccc2C1 [Compound 94],< 100
17,O=C(COc1ccc2c(cnn2C2CCNC2)c1)NCC(O)CN1CCc2ccccc2C1 (stereo not drawn) [Compound 95],< 100
18,CN1CCC(n2ncc3cc(OCC(=O)NCC(O)CN4CCc5ccccc5C4)ccc32)C1 (stereo not drawn) [Compound 96],< 100
19,"COc1ccc2cccc(OCC(=O)NC[C@@H](O)CN3CCc4ccccc4C3)c2n1 [Compound 98, (R)—N-(3-(3,4-dihydroisoquinolin-2(1H)-yl)-2-hydroxypropyl)-2-((2-methoxyquinolin-8-yl)oxy)acetamide]",< 100
20,CN1CCc2c(cccc2OCC(=O)NCC(O)CN2CCc3ccccc3C2)C1 (stereo not drawn) [Compound 99],< 100
21,O=C(COc1cccc2c1OCCO2)NCC(O)CN1CCc2ccccc2C1 (stereo not drawn) [Compound 100],< 100
22,CC(=O)N1CCc2c(cccc2OCC(=O)NCC(O)CN2CCc3ccccc3C2)C1 (stereo not drawn) [Compound 101],< 100
